Read-outs that look alike come from different tables or passages of the source.
Assays:
Kv1.1 = Kv1.1 (Homo sapiens, UniProt Q09470); conditions: cited from earlier work
normal human T-cells = assay type: cell-based
Experimental: Human T-Cells: Normal human T-cells were purified from peripheral blood of healthy donors as described (Levite et al, 2000; Ganor et al, 2003; Levite t al, 1998), and the resulting cell population, containing ≧90% T-cells, was suspended in RPMI medium supplemented with 10% FCS, 1% L-Glutamine and antibiotics (Biological Industries, Bet Haemek, Israel) and maintained at 2×10^6 cells/ml (37° C./5% CO2).
Determination of TNF-α, IFN-γ, IL-10 and IL-4 by ELISA: Freshly-purified normal resting human T-cells (2×10^6/ml) were incubated in 24-well plates (Costar, Corning, N.Y.) and the various channel blockers were added. […] Cytokine levels were measured in supernatants after 24 hours for TNF-α and IFN-γ and after 72 hours for IL-10 and IL-4, by quantitative sandwich ELISA (R&D, Minneapolis, Minn.), according to the manufacturer's instructions. […]
These 12 blockers were selected on the basis of their reported ability to block most types of K^+, Na^+, Ca^2+ and Cl^− channels expressed in T-cells (Deutsch et al, 1986; Lewis et al, 1995; Lewis et al, 1988; Rader et al, 1996; Freedman et al, 1995; Koo et al, 1997; Lin et al, 1993; Ishida et al, 1993; Jensen et al, 1999; Kotturi et al, 2003; Phipps et al, 1996; Verheugen et al, 1997; Levite et al, 2000; Chandy et al, 1984). The levels of TNFα secreted into the culture media were tested 24 hours later by ELISA. For positive control, the cells were exposed to the potent phorbol ester PMA, know to activate T-cells in a non-specific manner. The results are shown in FIG. 1A and represent fold increase ±SD TNF-α secretion tested in 2-3 independent experiments. Each ion channel blocker was examined in at least two independent experiments, and at several concentrations covering its effective range (see Materials and Methods). The numbers in each figure next to each blocker represent the highest molar concentration used. Statistical analysis: *P=0.0001, 0.0005, 0.0011 and 0.0005 vs. untreated for MgTX, KTX, DTX-K and PMA, respectively (Student's t-test).

Kv1.1, sequence (Q09470 whole entry): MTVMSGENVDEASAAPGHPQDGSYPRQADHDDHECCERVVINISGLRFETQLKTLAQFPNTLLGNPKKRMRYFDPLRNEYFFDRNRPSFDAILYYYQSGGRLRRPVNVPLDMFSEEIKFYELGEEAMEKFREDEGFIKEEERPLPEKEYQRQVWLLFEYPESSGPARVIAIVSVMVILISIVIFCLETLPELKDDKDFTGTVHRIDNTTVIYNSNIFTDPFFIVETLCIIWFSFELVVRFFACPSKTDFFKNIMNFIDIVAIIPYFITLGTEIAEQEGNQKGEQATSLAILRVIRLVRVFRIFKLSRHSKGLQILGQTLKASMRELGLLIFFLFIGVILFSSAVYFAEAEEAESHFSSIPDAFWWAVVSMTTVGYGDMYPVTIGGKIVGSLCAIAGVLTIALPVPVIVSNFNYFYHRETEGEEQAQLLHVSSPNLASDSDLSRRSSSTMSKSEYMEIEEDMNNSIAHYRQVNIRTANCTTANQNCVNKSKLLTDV

Dendrotoxin-K (AAKYCKLPLRIGPCKRKIPSFYYKWKAKQCLPFDYSGCGGNANRFKTIEECRRTCVG) [DTX-K]
active concentration, Kv1.1 channel block (Kv1.1): picomolar concentrations | IFN-γ secretion (normal human T-cells; 100 nM DTX-K, 24 hours, FIG. 2B): not affecting | TNFα secretion (normal human T-cells; 100 nM DTX-K, 24 hr, FIG. 2A): elevated | IL-10 secretion (normal human T-cells; 100 nM DTX-K, 72 hours, FIG. 2C): not affecting | IL-4 secretion (normal human T-cells; 100 nM DTX-K, 72 hours, FIG. 2D): not affecting | TNFα secretion, time course (normal human T-cells; 100 nM DTX-K, after 16 hours, individuals 4 and 5): significantly elevated | TNF-α secretion, time course (normal human T-cells; 100 nM DTX-K, after 72 hours, individuals 4 and 5): remained significantly high | additional elevation in TNFα levels beyond TCR-activation alone (normal human T-cells; DTX-K either during or after TCR-activation, data not shown): did not cause additional elevation | fold increase in TNFα secretion (normal human T-cells; FIG. 1A, 24 hours, DTX-K 100 nM, other blockers at highest concentration used, no other stimulus): 33.4 fold increase | fold increase in TNFα secretion (normal human T-cells; FIG. 1B, 24 hour exposure, 100 nM DTX-K): 8.7 fold | fold increase in TNFα secretion (normal human T-cells; FIG. 1B, 24 hour exposure, 1 μM DTX-K): 39.5 fold | fold increase TNF-α secretion (normal human T-cells; individual 1 (FIG. 1C), 24 hours, 100 nM): 22.3 fold | fold increase TNF-α secretion (normal human T-cells; individual 2 (FIG. 1D), 24 hours, 100 nM): 8.7 fold | fold increase TNF-α secretion (normal human T-cells; individual 3 (FIG. 1E), 24 hours, 100 nM): 49.0 fold | fold increase TNF-α secretion (normal human T-cells; individual 4 (FIG. 1F), 24 hours, 100 nM): 34.4 fold | TNF-α secreted to the culture media (normal human T-cells; individual 4 (FIG. 1F), 24 hours, 100 nM, untreated 38 pg/ml): 1308 pg/mL | fold increase TNF-α secretion (normal human T-cells; individual 5 (FIG. 1G), 24 hours, 100 nM): 2.4 fold | fold increase TNF-α secretion (normal human T-cells; individual 6 (FIG. 1H), 24 hours, 100 nM): 2.0 fold

Reference: patent US20090022739A1, “MODULATING THE KV1.1 VOLTAGE-GATED POTASSIUM CHANNEL IN T-CELLS FOR REGULATING THE […] AND SECRETION OF TUMOR NECROSIS FACTOR ALPHA (tnf-ALPHA) AND TREATING HUMAN DISEASE OR INJURIES MEDIATED BY […] HIGH OR LOW LEVELS OF TNF-ALPHA” (priority 2005, published 2009)
